The values that follow come from publication PMC7762498, “Demethoxycurcumin analogue DMC-BH exhibits potent anticancer effects on orthotopic glioblastomas” (Aging (Albany NY), 2020).

The nature of data set [1]: Octanol-water partition coefficient. The format is physicochemical. From the text: To determine whether DMC-BH inhibits the growth of glioma in the brain, we assessed its octanol-water partition coefficients and BBB penetrability. The hydrophobic parameters (logP) of DMC-BH and DMC were estimated under physiological as well as in acidic and basic conditions. The logP values for DMC-BH were negative at pH 2.5 and pH 9.0, as it was an amphoteric compound. At low pH or high pH conditions, DMC-BH occurred in the form of salts, and its logP values became negative due to better solubility.
Figure 2 Octanol-water partition coefficients (logP) and BBB penetrability of DMC-BH. (A) The logP was defined as log(Coctanol/Cwater). The amount of the compound in the water phase was determined spectrophotometrically, and the amount in the octanol phase was obtained by subtracting the supernatant concentration from the total concentration. (B) The BBB penetrability was defined as a brain-to-plasma AUC(time point) ratio. Values are expressed as the means ± SEM of 3 independent experiments.
The partition coefficient (P) between n-octanol and water was determined. The buffer mixture (0.05 M citric buffer, pH 2.5; 0.05 M acetic acid buffer, pH 5.5; 5 mM PBS, pH 7.4; or 0.05 M bicarbonate buffer, pH 9.0) and n-octanol was pre-equilibrated overnight at room temperature. After addition of the DMC or DMC-BH, the mixture was vortexed for 10 minutes and incubated at room temperature for an additional 15 minutes before centrifugation at 1000 g for 5 minutes. The amount of the compound in water phase was determined spectrophotometrically using standard curves, and the amount in lipid phase was obtained by subtracting the supernatant concentration from the total concentration, measured before mixing of the phases. P was determined according to P = (noct/Voct)/(nw/Vw), where n denotes the number of compound moles, V is the volume and the subscripts oct and w refer to n-octanol and aqueous phase, respectively.

A further data set has as its system CYP-450. Put plainly: CYP-450-related metabolism. The format is in vitro ADME.
The next data set has as its system C6 glioma cells. Description: MTT cell viability assay, C6. Format: cell-based. The following applies: Rattus norvegicus, 72 hours. The method, then: (§1) To investigate the cytotoxicity of DMC-BH on glioma cells (Figure 1A), we used an MTT assay to assess viability changes in SHG-44, C6, U251, U87, A172 and primary glioma cells treated with various concentrations of DMC-BH for 24, 48 or 72 hours (Figure 1B–1H). […] U251 and SHG-44 cells were more sensitive to DMC-BH. We then used the human glial cell line, HEB, to evaluate the toxicity of DMC-BH in normal cells. […] DMC-BH was not toxic to normal cells.
(§2) The human GBM U87-luc cell line was purchased from the Shanghai Sunbio Medical Biotechnology Co., Ltd. (Shanghai, China). Cells were cultured in DMEM supplemented with 10% fetal bovine serum (FBS) and maintained in an incubator at 37° C and 5% CO2. After cells were routinely passaged at 2- to 3-day intervals, animal experiments were carried out when the cells entered exponential growth phase. Rat C6, human SHG-44, U87, A172 and U251 glioma cells were obtained from the Shanghai Institute of Cell Biology, Chinese Academy of Sciences (Shanghai, China). Primary glioma cells were preserved by our laboratory from previous studies. […]
(§3) Glioblastoma cells were seeded into 96-well plates and exposed to vehicle (PBS) or different concentrations of DMC-BH for 24, 48 or 72 hours. Cell viability was measured using an MTT assay and was expressed as a ratio to the absorbance value of the control cells at 570 nm.
A general note: Formazan colour is commonly taken as a measure of viable cells.

The subject of the next data set is ICR mice. Put plainly: in vivo. To be noted: mouse; for Mortality rate (%) / No. of dead mice: female, ICR, 14 days.
The next data set concerns A172 glioma cells. Description: MTT cell viability assay, A172. Format: cell-based. The following applies: Homo sapiens, A 172, 72 hours. On the procedure:
as §1, §2, §3

The nature of the next data set: Plasma protein binding. Format: in vitro ADME.
In the next data set the test system is U251 glioma cells. Description: MTT cell viability assay, U251. The format is cell-based. To be noted: Homo sapiens, U-251, 72 hours. The method, then:
as §1, §2, §3

For data set [2], the system named is glioblastoma multiforme (GBM) patient derived tumors. Description: Patient-derived tumor xenograft (PDTX) model. The format is in vivo, mice. From the text:
In recent years, PDTX models have been used to mimic human tumors. These models are more clinically relevant than cell line-based xenograft models. Thus, we performed an in vivo study in a PDTX tumor model by implanting human glioma samples from a patient donor into B-NDG mice (Figure 7A).
Figure 7 In vivo anti-tumor activity of DMC-BH in the PDTX tumor model. (A) A scheme illustrating the process of creating the patient-derived tumor model. (B) Tumor growth curves of mice after treatment with 7.5 mg/kg, 15 mg/kg or 30 mg/kg DMC-BH or 20 mg/kg TMZ. (C) Average tumor weight at day 21 after different treatments. (D) Quantification of the Ki67-positive area in different treatment groups. (E) Representative H&E-stained tumor slices and Ki67 immunofluorescence labeled tumor tissue sections from different treatments groups. The data are shown as mean ± SD (n = 6).
Surgically resected human glioma tissue was obtained from a cancer patient (#0407002) following an approved Nanjing Medicinal University Institutional Review Board protocol. Within 2 hours of surgical resection, tumor tissues were cut into 1-2 mm fragments and implanted into SCID mice (B-NDG, 6 weeks old, female) using a surgical procedure approved by Nanjing Medicinal University Institutional Animal Care and Use committee. After surgery, tumor growth in the mice was monitored by palpating the abdomen twice per week. Tumors grew to 5-10 mm in diameter in about 8-10 weeks. The SCID mice bearing PDTX tumors were sacrificed, and tumor fragments of 1 to 2 mm in size were implanted into 6-week-old female SCID mice. Over 60% of the mice experienced tumor growth in approximately 6 weeks.

A further data set concerns U87 glioma cells. Description: MTT cell viability assay, U87. Format: cell-based. To be noted: Homo sapiens, U-87 MG, 72 hours. On the procedure: as §1, §2, §3
Another data set concerns SHG-44 glioma cells. Put plainly: MTT cell viability assay, SHG-44. The format is cell-based. To be noted: Homo sapiens, SHG-44 cells, 72 hours. On the procedure:
as §1, §2, §3

The test system of the next data set is primary glioma cells. Description: MTT cell viability assay, primary glioma cells. Format: cell-based. To be noted: 72 h. On the procedure:
as §1, §2, §3

Where [3] appears, read: B-NDG mice, DMC-BH 7.5, 15 or 30 mg/kg, TMZ 20 mg/kg.

Where two headings read alike, the source gives them in different places.

What is called logP is the decadic logarithm of the partition coefficient of the neutral form, usually between octanol and water. One may read the IC50 as the point on the concentration scale where inhibition reaches its midpoint. A higher IC50 goes with weaker potency in that assay. Broadly, the fraction unbound is free concentration divided by total concentration. A higher fraction unbound goes with much free substance. As for `COc1cc(C=CC(=O)CC(=O)C=Cc2ccc(O)c(CN3CCCC3)c2)ccc1O` [DMC-BH, 1-[4-Hydroxy-3-(pyrrolidin-1-ylmethyl)phenyl]-7-(4-hydroxy-3-methoxyphenyl) hepta-1,6-diene-3,5-dione], the logP was 3.26 in data set [1] (n-octanol/water (buffer), pH 7.4, n-octanol/water, read-out: logP); “negative” in data set [1] (pH 2.5, n-octanol/water); “negative” in data set [1] (pH 9.0, n-octanol/water). In addition, the CYP-450-related metabolism entry in the data set on CYP-450 is “low”. For the same compound, the IC50 with C6 glioma cells worked out at 5.79 µM; with A172 glioma cells it was 5.68 µM; in the data set with U251 glioma cells it was 2.52 µM; in the data set with U87 glioma cells, 4.77 µM; with SHG-44 glioma cells it was 3.08 µM; in the data set on primary glioma cells (primary glioma cells sample 1, 72 hours) it was 8.05 µM. Also, the IC50 in the data set on primary glioma cells (primary glioma cells sample 2, 72 hours) came out at 4.61 µM. The “Mortality rate (%)” value in the data set on ICR mice (5 mg/kg) is recorded as 0.0%; in the data set on ICR mice (10 mg/kg) it was 0.0%; in the data set on ICR mice (20 mg/kg), 0.0%; with ICR mice (30 mg/kg), 10.0%. Also, the “No. of dead mice” value with ICR mice (5 mg/kg) stood at 0; with ICR mice (10 mg/kg) it was 0; in the data set on ICR mice (20 mg/kg), 0; in the data set with ICR mice (30 mg/kg) it was 1. The “abnormalities compared to the control mice” value in the data set with ICR mice was “no abnormalities”. The compound further showed a fraction unbound in “Plasma protein binding” of 0.038. In addition, the “tolerability in PDTX model” value in [2] (setting [3]) was “tolerated”. Besides, in data set [2] (setting [3]), the “tumor growth in PDTX model” value was “significant tumor regression”. In data set [2] (PDTX tumor, 20 mg/kg, compared with the control tumor), the “number of Ki67-positive cells in tumor” value is “marked decrease”.
